Values of other authors as cited in publication PMC11511053, “Characterization of Kunitz-Domain Anticoagulation Peptides Derived from Acinetobacter baumannii Exotoxin Protein F6W77” (Toxins, 2024).

Tested on: Target
Details: Table 1, column Ref; ref PN2KPI [25], RVV inhibitor II [40], Simukunin [43], EnKT1 [48], SjKI-1 [22], Schixator [50], SmKI-1 [49], joannsin [44], KPI [45], BF9 [29], Fasxiator [42], Amblyomin-X [27], TAP [46], Bicolin [47]; cited from earlier work
Source text: Table 1 Natural Kunitz-type anticoagulant peptides from different organisms. | column: Target

TAP: Kunitz-type anticoagulant peptide from tick (YNRLCIKPRDWIDECDSNEGGERAYFRNGKGGCDSFWICPEDHTGADYYSSYRDCFNACI; UniProt P17726 1-60, looked up)
Target: FXa
